From US9156877B2, “17-hydroxy-17-pentafluorethyl-estra-4,9(10)-dien-11-benzylidene derivatives, methods for the production thereof and use thereof for treating diseases” (Bayer Intellectual Property GmbH, priority 2009, dated 2015)

Assays:
[1] = target: T1, human progesterone receptor A (Homo sapiens, UniProt P06401); experiment: Progesterone receptor-antagonistic action in stably transfected SK-N-MC cells with MMTV-LUC reporter (PR-A); assay type: cell-based; settings: antagonistic potency against 0.1 nmol/l promegestone, 24 hours, luciferase
T1 construct: expressed in transfected cells; host or cells: SK-N-MC human neuroblastoma cells, stably transfected with pRChPR-A-neo and pMMTV-LUC
T1 sequence (P06401 1-769 isoform P06401-2): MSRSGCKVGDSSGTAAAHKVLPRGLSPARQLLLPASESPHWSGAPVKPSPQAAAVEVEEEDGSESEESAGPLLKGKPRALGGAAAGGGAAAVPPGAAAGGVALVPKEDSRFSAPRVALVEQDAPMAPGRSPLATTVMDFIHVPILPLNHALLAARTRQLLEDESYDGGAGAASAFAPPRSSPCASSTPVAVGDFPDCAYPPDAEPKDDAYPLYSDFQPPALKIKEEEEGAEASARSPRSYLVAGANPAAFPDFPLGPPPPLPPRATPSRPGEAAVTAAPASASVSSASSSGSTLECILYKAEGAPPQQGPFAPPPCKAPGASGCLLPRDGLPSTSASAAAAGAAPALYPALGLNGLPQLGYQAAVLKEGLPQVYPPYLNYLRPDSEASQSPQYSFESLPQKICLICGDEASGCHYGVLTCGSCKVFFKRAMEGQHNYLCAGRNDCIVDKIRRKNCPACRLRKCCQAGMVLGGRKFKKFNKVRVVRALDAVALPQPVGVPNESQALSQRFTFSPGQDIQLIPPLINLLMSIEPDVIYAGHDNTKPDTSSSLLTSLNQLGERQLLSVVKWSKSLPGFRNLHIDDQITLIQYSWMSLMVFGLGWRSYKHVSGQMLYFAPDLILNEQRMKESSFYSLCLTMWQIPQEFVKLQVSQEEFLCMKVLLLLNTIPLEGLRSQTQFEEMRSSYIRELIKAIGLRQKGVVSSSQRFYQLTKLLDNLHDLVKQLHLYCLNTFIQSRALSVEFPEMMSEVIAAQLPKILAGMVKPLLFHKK
Experimental: (§1) Determination of Progesterone Receptor-Antagonistic Action in Stable Transfectants of Human Neuroblastoma Cells (SK-N-MC Cells) with the Human Progesterone A or Progesterone B Receptor and an MN-LUC Reporter Construct
(§2) SK-N-MC cells (human neuroblastoma cells) which have been stably transfected with plasmids expressing the human progesterone receptor B (pRChPR-B-neo) or the human progesterone receptor A (pRChPR-A-neo) and a reporter construct (pMMTV-LUC) were incubated for 24 hours either in the absence (negative control) or in the presence of ascending amounts of the particular test compound (0.01 nmol/l, 0.1 nmol/l, 1 nmol/l, 10 nmol/l, 100 nmol/l and […]), in order to determine the agonistic efficacy. As a positive control of the reporter gene induction, the cells were treated with the synthetic gestagen promegestone (0.01 nmol/l, 0.1 nmol/l, 1 nmol/l, 10 nmol/l, 100 nmol/l and […]). To determine the antagonistic activity, the cells were treated with 0.1 nmol/l promegestone and additionally with ascending amounts of the particular test compound (0.01 nmol/l, 0.1 nmol/l, 1 nmol/l, 10 nmol/l, 100 nmol/l and […]). The activity of the reporter gene LUC (LUC=luciferase) was determined in the cell lysates and measured as RLU (relative light units). All measurements are reported as % efficacy and as EC50 and IC50 concentrations.

[2] = target: T2, human progesterone receptor B (Homo sapiens, UniProt P06401); experiment: Progesterone receptor-antagonistic action in stably transfected SK-N-MC cells with MMTV-LUC reporter (PR-B); assay type: cell-based; settings: antagonistic potency against 0.1 nmol/l promegestone, 24 hours, luciferase
T2 construct: expressed in transfected cells; host or cells: SK-N-MC human neuroblastoma cells, stably transfected with pRChPR-B-neo and pMMTV-LUC
T2 sequence (P06401 1-933): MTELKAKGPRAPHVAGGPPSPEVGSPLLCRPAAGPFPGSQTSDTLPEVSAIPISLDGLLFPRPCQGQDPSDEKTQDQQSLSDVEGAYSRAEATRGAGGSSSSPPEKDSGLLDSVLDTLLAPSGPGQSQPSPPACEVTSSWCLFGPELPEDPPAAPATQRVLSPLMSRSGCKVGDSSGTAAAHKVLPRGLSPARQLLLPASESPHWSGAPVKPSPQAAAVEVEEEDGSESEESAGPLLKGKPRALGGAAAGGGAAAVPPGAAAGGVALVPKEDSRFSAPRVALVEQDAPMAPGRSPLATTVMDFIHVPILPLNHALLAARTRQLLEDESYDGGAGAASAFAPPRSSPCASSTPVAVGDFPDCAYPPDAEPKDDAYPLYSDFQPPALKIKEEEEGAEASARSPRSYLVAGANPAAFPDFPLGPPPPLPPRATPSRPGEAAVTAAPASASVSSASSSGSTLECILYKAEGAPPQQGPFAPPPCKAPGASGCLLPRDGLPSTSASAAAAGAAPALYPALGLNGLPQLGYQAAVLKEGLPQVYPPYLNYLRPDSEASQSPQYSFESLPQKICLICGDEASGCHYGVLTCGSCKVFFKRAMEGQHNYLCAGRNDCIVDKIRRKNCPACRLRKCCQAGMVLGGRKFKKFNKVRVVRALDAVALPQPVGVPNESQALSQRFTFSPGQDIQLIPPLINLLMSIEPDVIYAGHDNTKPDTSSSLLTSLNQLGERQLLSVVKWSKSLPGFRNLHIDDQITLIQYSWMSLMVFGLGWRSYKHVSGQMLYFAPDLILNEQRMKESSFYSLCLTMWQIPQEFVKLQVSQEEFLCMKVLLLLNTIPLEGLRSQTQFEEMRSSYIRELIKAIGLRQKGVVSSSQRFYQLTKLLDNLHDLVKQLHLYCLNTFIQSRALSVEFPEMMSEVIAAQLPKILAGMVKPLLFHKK
Experimental: as §1, §2

SMILES | IC50 [1] [nM] | IC50 [2] [nM]
C[C@]12C[C@H](c3ccc(/C=C/CNC(=O)Nc4ccccc4)cc3)C3=C4CCC(=O)C=C4CC[C@H]3[C@@H]1CC[C@@]2(O)C(F)(F)C(F)(F)F [Example 42, 1-{(E)-3-[4-((8S,11R,13S,14S,17S)-17-hydroxy-13-methyl-3-oxo-17-pentafluoroethyl-2,3,6,7,8,11,12,13,14,15,16,17-dodecahydro-1H-cyclopenta[a]phenanthren-11-yl)phenyl]allyl}-3-phenylurea] | 0.1 | –
Cc1nc(/C=C/c2cccc([C@H]3C[C@@]4(C)[C@@H](CC[C@@]4(O)C(F)(F)C(F)(F)F)[C@@H]4CCC5=CC(=O)CCC5=C43)c2)cs1 [Example 24, (8S,11R,13S,14S,17S)-17-hydroxy-13-methyl-11-{3-[(E)-2-(2-methylthiazol-4-yl)vinyl]phenyl}-17-pentafluoroethyl-1,2,6,7,8,11,12,13,14,15,16,17-dodecahydrocyclopenta[a]phenanthren-3-one] | 1 | 1
COc1ccc(NC(=O)NC/C=C/c2ccc([C@H]3C[C@@]4(C)[C@@H](CC[C@@]4(O)C(F)(F)C(F)(F)F)[C@@H]4CCC5=CC(=O)CCC5=C43)cc2)cc1 [Example 54, 1-{(E)-3-[4-((8S,11R,13S,14S,17S)-17-hydroxy-13-methyl-3-oxo-17-pentafluoroethyl-2,3,6,7,8,11,12,13,14,15,16,17-dodecahydro-1H-cyclopenta[a]phenanthren-11-yl)phenyl]allyl}-3-(4-methoxyphenyl)urea] | 0.1 | –
C[C@]12C[C@H](c3ccc(/C=C/CNC(=O)NCc4ccccc4)cc3)C3=C4CCC(=O)C=C4CC[C@H]3[C@@H]1CC[C@@]2(O)C(F)(F)C(F)(F)F [Example 46, 1-benzyl-3-{(E)-3-[4-((8S,11R,13S,14S,17S)-17-hydroxy-13-methyl-3-oxo-17-pentafluoroethyl-2,3,6,7,8,11,12,13,14,15,16,17-dodecahydro-1H-cyclopenta[a]phenanthren-11-yl)phenyl]allyl}urea] | 0.07 | 0.09
Cc1ccc(NC(=O)NC/C=C/c2ccc([C@H]3C[C@@]4(C)[C@@H](CC[C@@]4(O)C(F)(F)C(F)(F)F)[C@@H]4CCC5=CC(=O)CCC5=C43)cc2)cc1 [Example 45, 1-{(E)-3-[4-((8S,11R,13S,14S,17S)-17-hydroxy-13-methyl-3-oxo-17-pentafluoroethyl-2,3,6,7,8,11,12,13,14,15,16,17-dodecahydro-1H-cyclopenta[a]phenanthren-11-yl)phenyl]allyl}-3-p-tolylurea] | 0.1 | 0.1
C[C@]12C[C@H](c3ccc(/C=C/CNC(=O)Nc4ccc(F)cc4)cc3)C3=C4CCC(=O)C=C4CC[C@H]3[C@@H]1CC[C@@]2(O)C(F)(F)C(F)(F)F [Example 44, 1-(4-fluorophenyl)-3-{(E)-3-[4-((8S,11R,13S,14S,17S)-17-hydroxy-13-methyl-3-oxo-17-pentafluoroethyl-2,3,6,7,8,11,12,13,14,15,16,17-dodecahydro-1H-cyclopenta[a]phenanthren-11-yl)phenyl]allyl}urea] | 0.1 | 0.1
C[C@]12C[C@H](c3ccc(C=NOCc4ccccc4)cc3)C3=C4CCC(=O)C=C4CC[C@H]3[C@@H]1CC[C@@]2(O)C(F)(F)C(F)(F)F [Example 35, 4-((8S,11R,13S,14S,17S)-17-hydroxy-13-methyl-3-oxo-17-pentafluoroethyl-2,3,6,7,8,11,12,13,14,15,16,17-dodecahydro-1H-cyclopenta[a]phenanthren-11-yl)benzaldehyde O-benzyl oxime] | 0.1 | 0.09
COC(=O)c1ccc(/C=C/c2ccc([C@H]3C[C@@]4(C)[C@@H](CC[C@@]4(O)C(F)(F)C(F)(F)F)[C@@H]4CCC5=CC(=O)CCC5=C43)cc2)cc1 [Example 31, 4-{(E)-2-[4-((8S,11R,13S,14S,17S)-17-hydroxy-13-methyl-3-oxo-17-pentafluoroethyl-2,3,6,7,8,11,12,13,14,15,16,17-dodecahydro-1H-cyclopenta[a]phenanthren-11-yl)phenyl]vinyl}benzoic acid methyl ester] | 0.09 | 0.1
C[C@]12C[C@H](c3ccc(/C=C/c4ccc(S(C)(=O)=O)cc4)cc3)C3=C4CCC(=O)C=C4CC[C@H]3[C@@H]1CC[C@@]2(O)C(F)(F)C(F)(F)F [Example 32, (8S,11R,13S,14S,17S)-17-hydroxy-11-{4-[(E)-2-(4-methanesulphonylphenyl)vinyl]phenyl}-13-methyl-17-pentafluoroethyl-1,2,6,7,8,11,12,13,14,15,16,17-dodecahydrocyclopenta[a]phenanthren-3-one] | 0.01 | 0.01
C[C@]12C[C@H](c3ccc(/C=N/OCc4ccc(Cl)c(Cl)c4)cc3)C3=C4CCC(=O)C=C4CC[C@H]3[C@@H]1CC[C@@]2(O)C(F)(F)C(F)(F)F [Example 37, 4-((8S,11R,13S,14S,17S)-17-hydroxy-13-methyl-3-oxo-17-pentafluoroethyl-2,3,6,7,8,11,12,13,14,15,16,17-dodecahydro-1H-cyclopenta[a]phenanthren-11-yl)benzaldehyde O-(3,4-dichlorobenzyl)oxime] | 0.4 | 0.5
C[C@]12C[C@H](c3ccc(/C=C/CNC(=O)Nc4ccc(Cl)cc4)cc3)C3=C4CCC(=O)C=C4CC[C@H]3[C@@H]1CC[C@@]2(O)C(F)(F)C(F)(F)F [Example 53, 1-(4-chlorophenyl)-3-{(E)-3-[4-((8S,11R,13S,14S,17S)-17-hydroxy-13-methyl-3-oxo-17-pentafluoroethyl-2,3,6,7,8,11,12,13,14,15,16,17-dodecahydro-1H-cyclopenta[a]phenanthren-11-yl)phenyl]allyl}urea] | 0.1 | 0.2
C=C(C)c1ccc([C@H]2C[C@@]3(C)[C@@H](CC[C@@]3(O)C(F)(F)C(F)(F)F)[C@@H]3CCC4=CC(=O)CCC4=C32)cc1 [Example 11, (8S,11R,13S,14S,17S)-17-hydroxy-11-(4-isopropenylphenyl)-13-methyl-17-pentafluoroethyl-1,2,6,7,8,11,12,13,14,15,16,17-dodecahydrocyclopenta[a]phenanthren-3-one] | – | 0.012
C[C@]12C[C@H](c3ccc(/C=C/CNC(=O)Nc4ccc(N5CCCCC5)cc4)cc3)C3=C4CCC(=O)C=C4CC[C@H]3[C@@H]1CC[C@@]2(O)C(F)(F)C(F)(F)F [Example 58, 1-{(E)-3-[4-((8S,11R,13S,14S,17S)-17-hydroxy-13-methyl-3-oxo-17-pentafluoroethyl-2,3,6,7,8,11,12,13,14,15,16,17-dodecahydro-1H-cyclopenta[a]phenanthren-11-yl)phenyl]allyl}-3-(4-piperidin-1-ylphenyl)urea] | 0.5 | –
